Like-named read-outs stand apart in the source and are kept apart here. Blank lines part the entries; values can stand above or below the compound they belong to. Where a SMILES comes first, the peptide text is derived from it. Bridges are numbered along the chain shown (N, C = ends). [ ]: non-standard residue; d: D form. The star is where a group is joined. 5TAMRA = CN(C)c1ccc2c(c1)Oc1cc(N(C)C)ccc1C21OC(=O)c2cc(C(=O)*)ccc21; dPhe(4-CF3) = N[C@H](Cc1ccc(C(F)(F)F)cc1)C(=O)O; R8 = C=CCCCCCC[C@@](C)(N)C(=O)O; S8 = C=CCCCCCC[C@](C)(N)C(=O)O; Cba = N[C@@H](CC1CCC1)C(=O)O; R5 = C=CCCC[C@@](C)(N)C(=O)O; S5 = C=CCCC[C@](C)(N)C(=O)O; βAla = NCCC(=O)O
Legend:
[1] = target: MDM2 (Homo sapiens, UniProt Q00987); assay: Competitive fluorescence polarization assay for MDM2; type: binding; details: for Ki: read-out: Ki (MDM2)
[2] = target: T1, MDMX (Homo sapiens, UniProt O15151); assay: Competitive fluorescence polarization assay for MDMX; type: binding; details: competitive FP assay; for IC50: read-out: IC50 (MDMX); for Ki: read-out: Ki (MDMX)
T1 sequence (O15151 1-125): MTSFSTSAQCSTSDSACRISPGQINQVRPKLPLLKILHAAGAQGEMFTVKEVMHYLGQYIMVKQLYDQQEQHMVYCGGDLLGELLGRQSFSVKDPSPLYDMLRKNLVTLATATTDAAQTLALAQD

[3] = system: Caspase 3; assay: Caspase 3 detection assay in SJSA1 cells; type: cell-based; details: 48 h, Caspase 3 activation over DMSO-treated cells; for caspase 3 uM: 3 uM peptide; for caspase 10 uM: 10 uM peptide; for caspase 30 uM: 30 uM peptide
[4] = competitive FP assay, MDM2, read-out: IC50 (MDM2)

Sequence of MDM2 (Q00987 1-125): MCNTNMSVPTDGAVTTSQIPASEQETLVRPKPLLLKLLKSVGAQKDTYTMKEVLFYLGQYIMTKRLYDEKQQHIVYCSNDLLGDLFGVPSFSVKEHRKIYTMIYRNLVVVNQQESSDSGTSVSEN

IC50 [1, 4]: 10 to 100 nM
IC50 [2]: > 1000 nM
Structure (SMILES): CC(=O)N[C@@H](C(=O)N[C@H](C)C(=O)N[C@H](Cc1c[nH]c2ccccc12)C(=O)N[C@H](Cc1ccc(O)cc1)C(=O)N[C@]1(C)CCCC=CCCC[C@](C)(C(=O)N[C@H](CC(C)C)C(=O)N[C@H](CC(C)C)C(=O)N[C@H](CCCNC(=N)N)C(N)=O)NC(=O)[C@@H](CCC(=O)O)NC(=O)[C@@H](Cc2ccc(C(F)(F)F)cc2)NC(=O)[C@@H](CC(N)=O)NC1=O)[C@H](C)O [compound 753] (Ac-[dT][dA][dW][dY][R5][dN][dPhe(4-CF3)][dE][R5][dL][dL][dR]-NH2; staple 5-9)

IC50 [1, 4]: 100 to 1000 nM
IC50 [2]: > 1000 nM
Structure (SMILES): CC(=O)N[C@@H](C(=O)N[C@H](C)C(=O)N[C@H](Cc1c[nH]c2ccccc12)C(=O)N[C@H](Cc1ccc(O)cc1)C(=O)N[C@H](C)C(=O)N[C@]1(C)CCCC=CCCC[C@](C)(C(=O)N[C@H](CC(C)C)C(=O)N[C@H](CCCNC(=N)N)C(N)=O)NC(=O)[C@@H](CCCCN)NC(=O)[C@@H](CCC(=O)O)NC(=O)[C@@H](Cc2ccc(C(F)(F)F)cc2)NC1=O)[C@H](C)O [compound 754]

IC50 [1, 4]: < 10 nM
IC50 [2]: > 1000 nM
Structure (SMILES): CC(=O)N[C@@H](C(=O)N[C@H](C)C(=O)N[C@H](Cc1c[nH]c2ccccc12)C(=O)N[C@H](Cc1ccc(O)cc1)C(=O)N[C@H](C)C(=O)N[C@H](CC(N)=O)C(=O)N[C@H](Cc1ccc(C(F)(F)F)cc1)C(=O)N[C@H](CCC(=O)O)C(=O)N[C@]1(C)CCCC=CCCC[C@](C)(C(=O)N[C@H](C)C(N)=O)NC(=O)[C@@H](CCCNC(=N)N)NC(=O)[C@@H](CC(C)C)NC(=O)[C@@H](CC(C)C)NC1=O)[C@H](C)O [compound 755] (Ac-[dT][dA][dW][dY][dA][dN][dPhe(4-CF3)][dE][R5][dL][dL][dR][R5][dA]-NH2; staple 9-13)

IC50 [1, 4]: 10 to 100 nM
IC50 [2]: > 1000 nM
Structure (SMILES): CC(=O)N[C@@H](C(=O)N[C@H](C)C(=O)N[C@H](Cc1c[nH]c2ccccc12)C(=O)N[C@H](Cc1ccc(O)cc1)C(=O)N[C@H](C)C(=O)N[C@@]1(C)CCCCCCC=CCCC[C@](C)(C(=O)N[C@H](C)C(N)=O)NC(=O)[C@@H](CCCNC(=N)N)NC(=O)[C@@H](CC(C)C)NC(=O)[C@@H](CC(C)C)NC(=O)[C@@H](CCCCN)NC(=O)[C@@H](CCC(=O)O)NC(=O)[C@@H](Cc2ccc(C(F)(F)F)cc2)NC1=O)[C@H](C)O [compound 758] (Ac-[dT][dA][dW][dY][dA][S8][dPhe(4-CF3)][dE][dK][dL][dL][dR][R5][dA]-NH2; staple 6-13)

The next lines start with the compound.

Structure (SMILES): CC[C@H](C)[C@H](NC(=O)[C@H](C)NC(=O)[C@H](C)NC(=O)[C@]1(C)CCCC=CCCCCCC[C@@](C)(NC(=O)[C@H](Cc2ccccc2)NC(=O)[C@@H](NC(=O)[C@H](CC(C)C)NC(C)=O)[C@@H](C)O)C(=O)N[C@@H](C)C(=O)N[C@@H](Cc2ccc(O)cc2)C(=O)N[C@@H](Cc2c[nH]c3ccccc23)C(=O)N[C@@H](C)C(=O)N[C@@H](CCC(N)=O)C(=O)N[C@@H](CC(C)C)C(=O)N1)C(=O)N[C@H](C)C(N)=O (single isomer, unassigned) [compound 70]
IC50 [1, 4]: 100 to 1000 nM
Ki ([1]; competitive FP assay, MDM2): < 10 nM
IC50 [2]: 100 to 1000 nM
Ki [2]: 10 to 100 nM
caspase 3 uM [3]: 1
caspase 10 uM [3]: 9
caspase 30 uM [3]: 26

Structure (SMILES): CC(=O)N[C@@H](CC(C)C)C(=O)N[C@H](C(=O)N[C@@H](Cc1ccccc1)C(=O)N[C@]1(C)CCCCCCC=CCCC[C@@](C)(C(=O)N[C@@H](C)C(=O)N[C@H](C(=O)NCC(N)=O)C(C)C)NC(=O)[C@H](CC(C)C)NC(=O)[C@H](CCC(N)=O)NC(=O)[C@H](C)NC(=O)[C@H](Cc2c[nH]c3ccccc23)NC(=O)[C@H](Cc2ccc(O)cc2)NC(=O)[C@H](C)NC1=O)[C@@H](C)O (single isomer, unassigned) [compound 109]
caspase 3 uM [3]: 4
caspase 10 uM [3]: 16
caspase 30 uM [3]: 25

Structure (SMILES): CC(=O)N[C@@H](C)C(=O)N[C@@H](C)C(=O)N[C@@H](CC(C)C)C(=O)N[C@H](C(=O)N[C@@H](Cc1ccccc1)C(=O)N[C@]1(C)CCCCCCC=CCCC[C@@](C)(C(=O)N[C@@H](CO)C(=O)N[C@@H](C)C(=O)N[C@@H](C)C(=O)N[C@@H](C)C(=O)N[C@H](C)C(N)=O)NC(=O)[C@H](CC2CCC2)NC(=O)[C@H](CCC(N)=O)NC(=O)[C@H](C)NC(=O)[C@H](Cc2c[nH]c3ccccc23)NC(=O)[C@H](Cc2ccc(O)cc2)NC(=O)[C@H](CCC(=O)O)NC1=O)[C@@H](C)O (single isomer, unassigned) [compound 358]
caspase 0.3 uM ([3]; 0.3 uM peptide): 1
caspase 1 uM ([3]; 1 uM peptide): 2
caspase 3 uM [3]: 3
caspase 10 uM [3]: 6
caspase 30 uM [3]: 24

Structure (SMILES): CC(C)C[C@H](NC(=O)CCNC(=O)c1ccc2c(c1)C(=O)OC21c2ccc(N(C)C)cc2Oc2cc(N(C)C)ccc21)C(=O)N[C@H](C(=O)N[C@@H](C)C(=O)N[C@]1(C)CCCCCCC=CCCC[C@@](C)(C(=O)N[C@@H](CO)C(=O)N[C@@H](C)C(=O)N[C@@H](C)C(N)=O)NC(=O)[C@H](CC2CCC2)NC(=O)[C@H](CCC(N)=O)NC(=O)[C@H](C)NC(=O)[C@H](Cc2c[nH]c3ccccc23)NC(=O)[C@H](Cc2ccc(O)cc2)NC(=O)[C@H](CCC(=O)O)NC1=O)[C@@H](C)O [compound 687] ({5TAMRA-βAla}-LTA[R8]EYWAQ[Cba][S5]SAA-NH2; staple 4-11)
Ki ([1]; competitive FP assay, MDM2): 100 to 1000 nM
Ki [2]: 100 to 1000 nM

Structure (SMILES): CC(=O)N[C@@H](C(=O)N[C@]1(C)CCCC=CCCC[C@](C)(C(=O)N[C@H](Cc2ccc(C(F)(F)F)cc2)C(=O)N[C@H](CCC(=O)O)C(=O)N[C@H](CCCCN)C(=O)N[C@H](CC(C)C)C(=O)N[C@H](CC(C)C)C(=O)N[C@H](CCCNC(=N)N)C(N)=O)NC(=O)[C@@H](C)NC(=O)[C@@H](Cc2ccc(O)cc2)NC(=O)[C@@H](Cc2c[nH]c3ccccc23)NC1=O)[C@H](C)O [compound 752] (Ac-[dT][R5][dW][dY][dA][R5][dPhe(4-CF3)][dE][dK][dL][dL][dR]-NH2; staple 2-6)
IC50 [1, 4]: 100 to 1000 nM
IC50 [2]: > 1000 nM

Structure (SMILES): CC(=O)N[C@@H](C(=O)N[C@@]1(C)CCCCCCC=CCCC[C@](C)(C(=O)N[C@H](CC(C)C)C(=O)N[C@H](CC(C)C)C(=O)N[C@H](CCCNC(=N)N)C(N)=O)NC(=O)[C@@H](CCC(=O)O)NC(=O)[C@@H](Cc2ccc(C(F)(F)F)cc2)NC(=O)[C@@H](CC(N)=O)NC(=O)[C@@H](C)NC(=O)[C@@H](Cc2ccc(O)cc2)NC(=O)[C@@H](Cc2c[nH]c3ccccc23)NC1=O)[C@H](C)O [compound 756] (Ac-[dT][S8][dW][dY][dA][dN][dPhe(4-CF3)][dE][R5][dL][dL][dR]-NH2; staple 2-9)
IC50 [1, 4]: 10 to 100 nM
IC50 [2]: > 1000 nM

Structure (SMILES): CC(=O)N[C@@H](C(=O)N[C@H](C)C(=O)N[C@H](Cc1c[nH]c2ccccc12)C(=O)N[C@H](Cc1ccc(O)cc1)C(=O)N[C@@]1(C)CCCCCCC=CCCC[C@](C)(C(=O)N[C@H](C)C(N)=O)NC(=O)[C@@H](CC(C)C)NC(=O)[C@@H](CC(C)C)NC(=O)[C@@H](CCCCN)NC(=O)[C@@H](CCC(=O)O)NC(=O)[C@@H](Cc2ccc(C(F)(F)F)cc2)NC(=O)[C@@H](CC(N)=O)NC1=O)[C@H](C)O [compound 757] (Ac-[dT][dA][dW][dY][S8][dN][dPhe(4-CF3)][dE][dK][dL][dL][R5][dA]-NH2; staple 5-12)
IC50 ([1]; IC50 (MDM2)): < 10 nM
IC50 [2]: > 1000 nM

Reference: patent US8927500B2, “Peptidomimetic macrocycles” (Aileron Therapeutics, Inc., priority 2012, dated 2015)
